Structures are written as SMILES.

Type in all cases: cell-based, human
The subject of experiment [1] is HEK293 cells transformed with the CMV-EYFP, TRplp-EYFP or TRdm-EYFP expression cassettes. The experiment is described as follows: Cytotoxicity assay by fluorescent microscopy, EYFP fluorescent cell counts. Conditions: 5 micromolar. The source says: Fluorescence of single cells, tissues or cell suspensions can be detected and quantitated by several means such as visual inspection under a microscope, automated or semiautomated fluorescence imaging, flow cytometry, fluorescence spectroscopy in a fluorometer or in a microplate reader, using an appropriate filter set. For this example, visual inspection under a microscope (Nikon TE2000-S) was used to validate TR translational regulation in stressed and dying HEK293 cells expressing the TRplp-EYFP, TRdm-EYFP, TRplp-fLUC and TRdm-fLUC mRNAs.
In this study, HEK293 cells transformed with the CMV-EYFP, TRplp-EYFP or TRdm-EYFP expression cassettes are directly visualized following translation of the spontaneously fluorescent EYFP protein. One day prior to toxin addition, 200,000 cells (HEK293, HEK293 CMV-EYFP, HEK293 TRplp-EYFP or HEK293 TRdm-EYFP) are plated into a six-well tray containing a flame sterilized glass slide. […] Slides were fixed for 10 min in 4% paraformaldehyde, washed extensively with 1×PBS and mounted for fluorescence microscopy.
Fluorescent cell counts are performed on the 6 hr and 10 hr timepoints using an EYFP-selective filter set (Nikon) and are shown in FIG. 7. In untreated cell cultures, the frequency of EYFP-positive cells range from 1.5-2.5%, which is consistent with the frequency of nonviable cells in these cultures, as determined by Trypan blue staining. […]

The subject of experiment [2] is HEK293 cell pools expressing the fLUC-TRplp-EYFP, fLUC-TRdm-EYFP, pcuLf-TRplp-EYFP or pcuLf-TRdm-EYFP expression cassettes. The experiment is described as follows: Cytotoxicity assay by Western blot, bicistronic TR cassettes. The conditions noted are these: toxic doses.
In experiment [3] the test system is HEK293 cells transduced with rBAC TRplp-EYFP / TRdm-EYFP. Put plainly: TR-EYFP translation after rBAC transduction. The conditions noted are these: 5 μM, 24 hr. The method, then: This example is to show delivery of the TRplp-EYFP and TRdm-EYFP cassettes to HEK293 cells using rBAC transduction. HEK293 cells are plated on flame sterilized glass slides and grown until 60-70% confluent (1-2 days), washed with serum-free DMEM, and infected with rBAC for 1-2 hr. The medium is replaced with DMEM, 10% FBS and the cells incubated for 24 hours. Infected cells were treated with DMEM, 10% FBS supplemented with 5 μM calcium ionophore A23187 for 24 hr prior to direct microscopic examination.

In experiment [4] the test system is HT1080 cells transduced with rBAC-TRdm-EYFP virions. Put plainly: Cytotoxic event assay using rBAC-TRdm-EYFP gene delivery, fluorescence microscopy. Conditions: 5 μM. Here is the method: HT1080 cells are plated in 6-well trays and allowed to grow until 70-80% confluent. Two sets of HT1080 cells are transduced with rBAC-TRdm-EYFP virions (multiplicity of infection of 10 pfu/cell and 25 pfu/cell) for 24 hr and then treated with medium containing 5 μM calcium ionophore A23187 for 13.5 hr and 23 hr. At this time, untreated and treated cells are processed and examined by fluorescence microscopic analysis as described above.

Experiment [5] concerns HEK293 TRplp-fLUC subclone #3 and HEK293 TRdm-fLUC subclone #45. The experiment is described as follows: Microplate reader temporal response, lysed cell luciferase assay. Conditions: 6.7 micromolar. The method, then:
(§1) For this example, HEK293 cells expressing the TRplp-EYFP, TRdm-EYFP, TRplp fLUC and TRdm-fLUC expression cassettes are evaluated using a microplate reader. To quantitate the TR translational response, 24,000 cells are plated in a 96-well microtiter plates and allowed to grow for about 40 hr to achieve the proper cell density prior to incubation with a toxic agent. Each well is cultured with complete DMEM medium containing either no toxin or a defined concentration of toxin and incubated at 37 C for specific time periods. At that time, fluorescence or chemiluminescence on a FLUOstar Optima (BMG Labtech) microplate reader is used measure TR-ORF response.
(§2) For a lysed cell assay, cells are cultured as above, but in regular flat bottom 96-well trays. After toxin incubation, the 96-well plates are centrifuged as above. The media is removed, replaced with 50 microliters of Cell Lysis Buffer (25 mM Tris-phosphate (pH7.8), 10% glycerol, 1% TritonX-100, 1 mg/ml BSA, 2 mM EGTA and 2 mM DTT) and incubated for 10 min at RT. Cell lysis is verified using a phase contrast microscope, and the lysates transferred to a white bottom 96-well tray. Luminescence is developed by injection of 5 microliters of D-luciferin solution dissolved in Reaction Buffer (25 mM Glycylglycine (pH 7.8), 15 mM MgSO4, 4 mM EDTA, 15 mM Potassium phosphate, 1 mM DTT, 1 mM Coenzyme A, 6.7 mM ATP and 3.35 mM D-luciferin). After 4 sec with shaking, luminescence values were measured using the lens filter at gains of 2000-3000.
Temporal response assays are used to define the timing of TR-regulated translation during incubation in toxic levels of a cytotoxic agent. HEK293 TRplp-fLUC subclone #3 and HEK293 TRdm-fLUC subclone #45 are cultured in 6.7 micromolar calcium ionophore A23187 for various times (0 hr, 1.5 hr, 3 hr, 4.5 hr, 6 hr, 7.5 hr, 9 hr, 10.5 hr, 12 hr and 13.5 hr) and analyzed as described above using a lysed cell luciferase assay (FIG. 11).

Experiment [6] deals with HEK293 TRplp-fLUC (subclone #3) and TRdm-fLUC (subclone #45) cells. Put plainly: Microplate reader dose response, lysed cell luciferase assay. The conditions noted are these: 12 hr. Here is the method: as §1, §2
Dose response assays are necessary to define toxic concentrations of candidate cytotoxic agents. To establish a TR-mediated cellular response and identify a TR effective dose, HEK293 cells transformed with the TRplp-fLUC (subclone #3) and TRdm-fLUC (subclone #45) expression cassettes are subjected to a range of subtoxic to toxic concentrations of the calcium ionophore A23187 (0, 1 nM, 10 nM, 100 nM, 1 μM, 2 μM, 4 μM, 6 μM, 8 μM, 10 μM) for 12 hr and analyzed as described above using a lysed cell luciferase assay (FIG. 10).

Turning to `CNc1ccc2oc(C[C@H]3O[C@@]4(CC[C@H]3C)O[C@H]([C@H](C)C(=O)c3ccc[nH]3)[C@H](C)C[C@H]4C)nc2c1C(=O)O` [calcium ionophore A23187], the “change in the number of fluorescent cells” value in experiment [1] (HEK293 or HEK CMV-EYFP cells) is listed as “no significant change”. The “frequency of fluorescent cells, rise in % of untreated control cultures” value in experiment [1] (TRplp-EYFP expressing cells, 6 hr and 10 hr) was 1000-2300%. Besides, the “EYFP translation in cell pools expressing the bicistronic TR cassettes (Western blot, FIG. 4)” value in experiment [2] is “induce EYFP translation”. Moreover, the “translation of EYFP in rBAC transduced cells compared to uninfected control cells” value in experiment [3] is on record as “exhibit selective translation of the fluorescent EYFP protein”. The “increase in EYFP positive cells compared to infected but untreated cell samples” value turned out to be 3344% in experiment [4] (13.5 hr, 10 pfu/cell); 4925% in experiment [4] (13.5 hr, 25 pfu/cell); 725% in experiment [4] (23 hr, 10 pfu/cell); 875% in experiment [4] (23 hr, 25 pfu/cell). The “decrease in the number of attached cells” value in experiment [4] (23 hr) was “more than 50%”. Besides, the “time up to which translational activity increases linearly, values adjusted to HEK293 CMV-fLUC cells” value in experiment [5] (ratio to CMV-fLUC) came out at 12 h. In addition, the “time post-incubation by which significant TR-specific translation is detected” value in experiment [5] (raw luciferase numbers) is at most 1.5 h. Besides, the “time post-incubation up to which translational activity increases linearly, then plateau” value in experiment [5] (raw luciferase numbers) was 9 h. Also, the “fLuc activity at the 8-10 μM toxin concentrations” value in experiment [6] (8-10 μM) is given as “decline in fLuc activity”. In addition, the “concentration of peak in fLUC values” in experiment [6] (raw luciferase numbers) is 6 µM. The “concentration at which TR-mediated translation is initially detected” value in experiment [6] (raw luciferase numbers, each cassette) came out at 1 µM. Moreover, the “TR-specific translational activity at lower subtoxic doses” value in experiment [6] (below 1 μM (1 nM, 10 nM, 100 nM)) is listed as “no apparent TR-specific translational activity”.

The record behind these values is patent US9322034B2, “Compositions and methods for detecting and modulating cell death by a translation regulated gene expression system” (Wayne State University, priority 2007, dated 2016).
